Data from ChEMBL document CHEMBL3885881, “DrugMatrix”.

Organism: Rattus norvegicus
Assay: DrugMatrix - Regimen: Daily Repeat
Format: toxicity, organism-based, Sprague-Dawley
Parameters: regimen Daily Repeat, gender Male, age 6-8 weeks
Conditions: in vivo, iv, vehicle 100 % SALINE; for ABSOLUTE BASOPHIL / ABSOLUTE EOSINOPHIL / ABSOLUTE LYMPHOCYTE / ABSOLUTE MONOCYTE / ABSOLUTE SEGMENTED NEUTROPHIL / BASOPHIL / EOSINOPHIL / ERYTHROCYTE COUNT / HEMATOCRIT / HEMOGLOBIN / LEUKOCYTE COUNT / LYMPHOCYTE / MEAN CORPUSCULAR HEMOGLOBIN / MEAN CORPUSCULAR HEMOGLOBIN CONCENTRATION / MEAN CORPUSCULAR VOLUME / MONOCYTE / NEUTROPHIL / NUCLEATED RED BLOOD CELLS / PLATELET COUNT: tissue Blood; for ALANINE AMINOTRANSFERASE / ALBUMIN / ALKALINE PHOSPHATASE / ASPARTATE AMINOTRANSFERASE / BLOOD UREA NITROGEN / CARBON DIOXIDE / CHLORIDE / CHOLESTEROL / CREATINE PHOSPHOKINASE / CREATININE / GLUCOSE / LACTATE DEHYDROGENASE / LIPASE / PHOSPHORUS / POTASSIUM / SODIUM / TOTAL BILIRUBIN / TOTAL PROTEIN / URIC ACID: tissue Plasma
[1] = 33 mg/kg, 72 h, dose level Low, time 3 day
[2] = 33 mg/kg, 120 h, dose level Low, time 5 day
[3] = 1000 mg/kg, 72 h, dose level High, time 3 day
[4] = 1000 mg/kg, 120 h, dose level High, time 5 day

In the case of `CO/N=C(\C(=O)N[C@@H]1C(=O)N2C(C(=O)O)=C(COC(C)=O)CS[C@H]12)c1csc(N)n1` [CEFOTAXIME], the “ABSOLUTE BASOPHIL” value [1] is reported as 0 CELLS/uL, the “ABSOLUTE EOSINOPHIL” value [1] is reported as 0 CELLS/uL and the “ABSOLUTE LYMPHOCYTE” value [1] is reported as 11282.67 CELLS/uL. For the same compound, the “ABSOLUTE MONOCYTE” value [1] was 120 CELLS/uL, the “ABSOLUTE SEGMENTED NEUTROPHIL” value [1] was 730.67 CELLS/uL and the BASOPHIL [1] was 0%. For the same compound, the EOSINOPHIL [1] was 0%, the “ERYTHROCYTE COUNT” value [1] was 5.79 x10E6/uL and the HEMATOCRIT [1] was 35.7%. For the same compound, the HEMOGLOBIN [1] was 13.43 G/DL, the “LEUKOCYTE COUNT” value [1] was 12.13 x10E3/uL and the LYMPHOCYTE [1] was 93%. The “MEAN CORPUSCULAR HEMOGLOBIN” value [1] was 23.2 pg, the “MEAN CORPUSCULAR HEMOGLOBIN CONCENTRATION” value [1] was 37.63 G/DL and the “MEAN CORPUSCULAR VOLUME” value [1] was 61.63 fL. For the same compound, the MONOCYTE [1] was 0.67%, the NEUTROPHIL [1] was 6.33% and the “NUCLEATED RED BLOOD CELLS” value [1] was 0 /100WBC. The “PLATELET COUNT” value [1] was 1231.67 x10E3/uL, the “ALANINE AMINOTRANSFERASE” value [1] was 55 u/L and the ALBUMIN [1] was 4.17 G/DL. The “ALKALINE PHOSPHATASE” value [1] was 343 u/L, the “ASPARTATE AMINOTRANSFERASE” value [1] was 90.67 u/L and the “BLOOD UREA NITROGEN” value [1] was 15.67 mg/dL. For the same compound, the “CARBON DIOXIDE” value [1] was 25.67 mmol/L, the CHLORIDE [1] was 103.33 MEQ/L and the CHOLESTEROL [1] was 73.67 mg/dL. The “CREATINE PHOSPHOKINASE” value [1] was 330.67 u/L, the CREATININE [1] was 0.38 mg/dL and the GLUCOSE [1] was 167.33 mg/dL. The “LACTATE DEHYDROGENASE” value [1] was 139.33 u/L, the LIPASE [1] was 12 u/L and the PHOSPHORUS [1] was 14.17 mg/dL. The POTASSIUM [1] was 7.29 MEQ/L, the SODIUM [1] was 146.03 MEQ/L and the “TOTAL BILIRUBIN” value [1] was 0.17 mg/dL. For the same compound, the “TOTAL PROTEIN” value [1] was 5.8 G/DL, the “URIC ACID” value [1] was 2.07 mg/dL and the “ABSOLUTE BASOPHIL” value [2] was 0 CELLS/uL. The “ABSOLUTE EOSINOPHIL” value [2] was 0 CELLS/uL, the “ABSOLUTE LYMPHOCYTE” value [2] was 11544.67 CELLS/uL and the “ABSOLUTE MONOCYTE” value [2] was 213 CELLS/uL. The “ABSOLUTE SEGMENTED NEUTROPHIL” value [2] was 1075.67 CELLS/uL, the BASOPHIL [2] was 0% and the EOSINOPHIL [2] was 0%. The “ERYTHROCYTE COUNT” value [2] was 5.16 x10E6/uL, the HEMATOCRIT [2] was 32.83% and the HEMOGLOBIN [2] was 12.33 G/DL. The “LEUKOCYTE COUNT” value [2] was 12.83 x10E3/uL, the LYMPHOCYTE [2] was 90% and the “MEAN CORPUSCULAR HEMOGLOBIN” value [2] was 23.93 pg. The “MEAN CORPUSCULAR HEMOGLOBIN CONCENTRATION” value [2] was 37.77 G/DL, the “MEAN CORPUSCULAR VOLUME” value [2] was 63.47 fL and the MONOCYTE [2] was 1.67%. The NEUTROPHIL [2] was 8.33%, the “NUCLEATED RED BLOOD CELLS” value [2] was 0 /100WBC and the “PLATELET COUNT” value [2] was 1107.67 x10E3/uL. The “ALANINE AMINOTRANSFERASE” value [2] was 62.33 u/L, the ALBUMIN [2] was 4.3 G/DL and the “ALKALINE PHOSPHATASE” value [2] was 354.67 u/L. The “ASPARTATE AMINOTRANSFERASE” value [2] was 90.33 u/L, the “BLOOD UREA NITROGEN” value [2] was 17.67 mg/dL and the “CARBON DIOXIDE” value [2] was 23 mmol/L. The CHLORIDE [2] was 104.67 MEQ/L, the CHOLESTEROL [2] was 70.33 mg/dL and the “CREATINE PHOSPHOKINASE” value [2] was 349.67 u/L. The CREATININE [2] was 0.49 mg/dL, the GLUCOSE [2] was 153 mg/dL and the “LACTATE DEHYDROGENASE” value [2] was 186 u/L. It also gave an LIPASE [2] of 11 u/L, a PHOSPHORUS [2] of 11.7 mg/dL and a POTASSIUM [2] of 6.42 MEQ/L. The SODIUM [2] was 146.17 MEQ/L, the “TOTAL BILIRUBIN” value [2] was 0.2 mg/dL and the “TOTAL PROTEIN” value [2] was 6.03 G/DL. For the same compound, the “URIC ACID” value [2] was 1.63 mg/dL, the “ABSOLUTE BASOPHIL” value [3] was 0 CELLS/uL and the “ABSOLUTE EOSINOPHIL” value [3] was 92 CELLS/uL. The “ABSOLUTE LYMPHOCYTE” value [3] was 10640.67 CELLS/uL, the “ABSOLUTE MONOCYTE” value [3] was 57.67 CELLS/uL and the “ABSOLUTE SEGMENTED NEUTROPHIL” value [3] was 1309.67 CELLS/uL. The BASOPHIL [3] was 0%, the EOSINOPHIL [3] was 0.67% and the “ERYTHROCYTE COUNT” value [3] was 5.89 x10E6/uL. The HEMATOCRIT [3] was 38.83%, the HEMOGLOBIN [3] was 13.87 G/DL and the “LEUKOCYTE COUNT” value [3] was 12.1 x10E3/uL. For the same compound, the LYMPHOCYTE [3] was 88%, the “MEAN CORPUSCULAR HEMOGLOBIN” value [3] was 23.53 pg and the “MEAN CORPUSCULAR HEMOGLOBIN CONCENTRATION” value [3] was 35.73 G/DL. For the same compound, the “MEAN CORPUSCULAR VOLUME” value [3] was 65.93 fL, the MONOCYTE [3] was 0.33% and the NEUTROPHIL [3] was 11%. For the same compound, the “NUCLEATED RED BLOOD CELLS” value [3] was 0.33 /100WBC, the “PLATELET COUNT” value [3] was 1356.67 x10E3/uL and the “ALANINE AMINOTRANSFERASE” value [3] was 52.33 u/L. The ALBUMIN [3] was 4.4 G/DL, the “ALKALINE PHOSPHATASE” value [3] was 407.67 u/L and the “ASPARTATE AMINOTRANSFERASE” value [3] was 70.33 u/L. For the same compound, the “BLOOD UREA NITROGEN” value [3] was 16.67 mg/dL, the “CARBON DIOXIDE” value [3] was 29.33 mmol/L and the CHLORIDE [3] was 102.33 MEQ/L. The CHOLESTEROL [3] was 85.33 mg/dL, the “CREATINE PHOSPHOKINASE” value [3] was 225 u/L and the CREATININE [3] was 0.27 mg/dL. The GLUCOSE [3] was 150 mg/dL, the “LACTATE DEHYDROGENASE” value [3] was 77 u/L and the LIPASE [3] was 9.67 u/L. The PHOSPHORUS [3] was 11.8 mg/dL, the POTASSIUM [3] was 6.59 MEQ/L and the SODIUM [3] was 146.77 MEQ/L. For the same compound, the “TOTAL BILIRUBIN” value [3] was 0.17 mg/dL, the “TOTAL PROTEIN” value [3] was 6.43 G/DL and the “URIC ACID” value [3] was 2.1 mg/dL. The “ABSOLUTE BASOPHIL” value [4] was 0 CELLS/uL, the “ABSOLUTE EOSINOPHIL” value [4] was 63 CELLS/uL and the “ABSOLUTE LYMPHOCYTE” value [4] was 13558.67 CELLS/uL. For the same compound, the “ABSOLUTE MONOCYTE” value [4] was 820 CELLS/uL, the “ABSOLUTE SEGMENTED NEUTROPHIL” value [4] was 3591.67 CELLS/uL and the BASOPHIL [4] was 0%. For the same compound, the EOSINOPHIL [4] was 0.33%, the “ERYTHROCYTE COUNT” value [4] was 5.88 x10E6/uL and the HEMATOCRIT [4] was 37.4%. For the same compound, the HEMOGLOBIN [4] was 14 G/DL, the “LEUKOCYTE COUNT” value [4] was 18.03 x10E3/uL and the LYMPHOCYTE [4] was 75.33%. For the same compound, the “MEAN CORPUSCULAR HEMOGLOBIN” value [4] was 23.8 pg, the “MEAN CORPUSCULAR HEMOGLOBIN CONCENTRATION” value [4] was 37.47 G/DL and the “MEAN CORPUSCULAR VOLUME” value [4] was 63.57 fL. For the same compound, the MONOCYTE [4] was 4.67%, the NEUTROPHIL [4] was 19.67% and the “NUCLEATED RED BLOOD CELLS” value [4] was 0 /100WBC. For the same compound, the “PLATELET COUNT” value [4] was 1367 x10E3/uL, the “ALANINE AMINOTRANSFERASE” value [4] was 57.67 u/L and the ALBUMIN [4] was 4 G/DL. The “ALKALINE PHOSPHATASE” value [4] was 325.67 u/L, the “ASPARTATE AMINOTRANSFERASE” value [4] was 70.67 u/L and the “BLOOD UREA NITROGEN” value [4] was 19 mg/dL. For the same compound, the “CARBON DIOXIDE” value [4] was 23.67 mmol/L, the CHLORIDE [4] was 104.67 MEQ/L and the CHOLESTEROL [4] was 86.33 mg/dL. The “CREATINE PHOSPHOKINASE” value [4] was 235.67 u/L, the CREATININE [4] was 0.3 mg/dL and the GLUCOSE [4] was 163.33 mg/dL. For the same compound, the “LACTATE DEHYDROGENASE” value [4] was 138.67 u/L, the LIPASE [4] was 10 u/L and the PHOSPHORUS [4] was 12.13 mg/dL. For the same compound, the POTASSIUM [4] was 6.32 MEQ/L, the SODIUM [4] was 145.77 MEQ/L and the “TOTAL BILIRUBIN” value [4] was 0.13 mg/dL. The “TOTAL PROTEIN” value [4] was 6.3 G/DL and the “URIC ACID” value [4] was 1.7 mg/dL.
